Counter-ions that a name gives are not always drawn.

Chain of human active recombinant p38α-6His tagged (Q16539 whole entry): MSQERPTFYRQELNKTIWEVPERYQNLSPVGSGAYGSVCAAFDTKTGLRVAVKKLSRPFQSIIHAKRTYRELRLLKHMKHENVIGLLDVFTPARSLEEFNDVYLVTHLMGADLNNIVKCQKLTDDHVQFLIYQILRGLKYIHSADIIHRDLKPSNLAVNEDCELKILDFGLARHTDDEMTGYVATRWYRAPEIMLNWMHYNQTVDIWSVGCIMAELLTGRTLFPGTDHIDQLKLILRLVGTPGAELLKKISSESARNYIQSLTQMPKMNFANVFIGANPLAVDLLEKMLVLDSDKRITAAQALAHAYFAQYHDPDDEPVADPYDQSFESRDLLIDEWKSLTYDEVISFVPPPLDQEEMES

This assay addresses human active recombinant p38α-6His tagged (Homo sapiens, UniProt Q16539). Briefly: P38 Alpha Enzyme Assay (AlphaScreen, biotinylated-ATF2 substrate).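 Note: 0.5 nM final p38α, reaction started with ATP and run 45 min at 37 °C, phospho-ATF2 read by antibody-based AlphaScreen, background wells quenched with EDTA before ATP.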 Type of assay: biochemical. The following applies: p38 alpha enzyme inhibition; means of replicate determinations; 4 h pre-incubation at 37° C.; SD of assay 0.2-0.3 log units. (Bead proximity is the source of the signal in Alpha formats.)
What is called pIC50 is the IC50 on a negative log10 scale, so that one unit is a factor of ten. Regarding `CCONC(=O)c1ccc(C)c(-n2ccnc(NC(C)(C)c3ccccc3OCCNC)c2=O)c1` [Example 222, N-Ethoxy-4-methyl-3-[3-[[1-methyl-1-[2-[2-(methylamino)ethoxy]phenyl]ethyl]amino]-2-oxo-1(2H)-pyrazinyl]-benzamide], the pIC50 was 9.
With `Cc1c(F)cc(C(=O)NC2CC2)cc1-n1ccnc(NC2(c3ccccc3OCCNC(C)C)CC2)c1=O` [Example 264, N-Cyclopropyl-3-fluoro-4-methyl-5-[3-[[1-[2-[2-[(1-methylethyl)amino]ethoxy]phenyl]cyclopropyl]amino]-2-oxo-1(2H)-pyrazinyl]-benzamide], the negative-log IC50 (pIC50) is recorded as 10.1.
As to `CNC[C@H](O)COc1ccccc1C(C)(C)Nc1nccn(-c2cc(C(=O)NC3CC3)cc(F)c2C)c1=O` [Example 310, N-Cyclopropyl-3-fluoro-5-[3-{[1-(2-{[(2S)-2-hydroxy-3-(methylamino)propyl]oxy}phenyl)-1-methylethyl]amino}-2-oxopyrazin-1(2H)-yl]-4-methylbenzamide], the pIC50 is listed as 10.
To `Cc1ccc(C(=O)NC2CC2)cc1-n1ccnc(NC(C)(C)c2ccccc2OCCN2CCCCC2)c1=O` [Example 201, N-Cyclopropyl-4-methyl-3-[3-[[1-methyl-1-[2-[2-(1-piperidinyl)ethoxy]phenyl]ethyl]amino]-2-oxo-1(2H)-pyrazinyl]-benzamide] belongs 9.1; to `CNCCOc1ccc(F)cc1C1(Nc2nccn(-c3cc(C(=O)NC4CC4)ccc3C)c2=O)CC1` [Example 278, N-Cyclopropyl-3-[3-[[1-[5-fluoro-2-[2-(methylamino)ethoxy]phenyl]cyclopropyl]amino]-2-oxo-1(2H)-pyrazinyl]-4-methyl-benzamide], 9.9; to `Cc1ccc(C(=O)NC2CC2)cc1-n1ccnc(NC(C)(C)c2ccccc2OC[C@@H](CO)N(C)C)c1=O` [Example 306, N-Cyclopropyl-3-[3-{[1-(2-{[(2R)-2-(dimethylamino)-3-hydroxypropyl]oxy}phenyl)-1-methylethyl]amino}-2-oxopyrazin-1(2H)-yl]-4-methylbenzamide], 10.1.
The result for `Cc1cccc(C2CCCN2c2nccn(-c3cc(C(=O)NC4CC4)ccc3C)c2=O)c1` (stereo not drawn) [Example 96, N-Cyclopropyl-4-methyl-3-[3-[2-(3-methylphenyl)-1-pyrrolidinyl]-2-oxo-1(2H)-pyrazinyl]-benzamide] reads 8.5; that for `Cc1ccc(C(=O)NC2CC2)cc1-n1ccnc(NC(C)(C)c2ccccc2OCCNC(C)C)c1=O` [Example 212, N-Cyclopropyl-4-methyl-3-[3-[[1-methyl-1-[2-[2-[(1-methylethyl)amino]ethoxy]phenyl]ethyl]amino]-2-oxo-1(2H)-pyrazinyl]-benzamide], 9.6; that for `Cc1ccc(C(=O)NC2CC2)cc1-n1ccnc(N[C@@H](c2ccccc2)[C@@H](C)CN2CC[C@H](O)C2)c1=O` [Example 190, N-Cyclopropyl-3-[3-[[(1R,2S)-3-[(3S)-3-hydroxy-1-pyrrolidinyl]-2-methyl-1-phenylpropyl]amino]-2-oxo-1(2H)-pyrazinyl]-4-methyl-benzamide], 9.
As to `CCNC[C@H](O)COc1ccccc1C1(Nc2nccn(-c3cc(C(=O)NC4CC4)ccc3C)c2=O)CC1` [Example 303, N-cyclopropyl-3-[3-{[1-(2-{[(2S)-3-(ethylamino)-2-hydroxypropyl]oxy}phenyl)cyclopropyl]amino}-2-oxopyrazin-1(2H)-yl]-4-methylbenzamide], the pIC50 stood at 10.1.
In the case of `Cc1ccc(C(=O)NC2CC2)cc1-n1ccnc(NCc2cccc(C(F)(F)F)c2)c1=O` [Example 93, N-Cyclopropyl-4-methyl-3-[2-oxo-3-[[[3-(trifluoromethyl)phenyl]methyl]amino]-1(2H)-pyrazinyl]-benzamide], the pIC50 turned out to be 6.9.
The result for `Cc1ccc(C(=O)NC2CC2)cc1-n1ccnc(N2CCCC(c3ccc(OCCN4CCCC4)cc3)C2)c1=O` (stereo not drawn) [Example 59, N-Cyclopropyl-4-methyl-3-[2-oxo-3-[3-[4-[2-(1-pyrrolidinyl)ethoxy]phenyl]-1-piperidinyl]-1(2H)-pyrazinyl]-benzamide] reads 7.2; that for `Cc1ccc(C(=O)NC2CC2)cc1-n1ccnc(NC2(c3ccccc3OCCNCCO)CCC2)c1=O` [Example 270, N-Cyclopropyl-3-[3-[[1-[2-[2-[(2-hydroxyethyl)amino]ethoxy]phenyl]cyclobutyl]amino]-2-oxo-1(2H)-pyrazinyl]-4-methyl-benzamide], 9.9; that for `Cc1c(F)cc(C(=O)NC2CC2)cc1-n1ccnc(NC2(c3ccccc3OCCNC[C@@H](C)O)CC2)c1=O` [Example 265, N-Cyclopropyl-3-fluoro-5-[3-[[1-[2-[2-[[(2R)-2-hydroxypropyl]amino]ethoxy]phenyl]cyclopropyl]amino]-2-oxo-1(2H)-pyrazinyl]-4-methyl-benzamide], 9.7.
Take `Cc1ccc(C(=O)NC2CC2)cc1-n1ccnc(NC2(c3ccccc3OCCNC(C)C)CCC2)c1=O` [Example 271, N-Cyclopropyl-4-methyl-3-[3-[[1-[2-[2-[(1-methylethyl)amino]ethoxy]phenyl]cyclobutyl]amino]-2-oxo-1(2H)-pyrazinyl]-benzamide]: the negative-log IC50 (pIC50) was found to be 9.9.
On to `COCCNCCOc1ccccc1C1(Nc2nccn(-c3cc(C(=O)NC4CC4)ccc3C)c2=O)CC1` [Example 231, N-Cyclopropyl-3-[3-[[1-[2-[2-[(2-methoxyethyl)amino]ethoxy]phenyl]cyclopropyl]amino]-2-oxo-1(2H)-pyrazinyl]-4-methyl-benzamide], for which the pIC50 is 9.9.
Take `Cc1ccc(C(=O)NC2CC2)cc1-n1ccnc(NCc2nc3ccccc3[nH]2)c1=O` [Example 27, 3-[3-[(1H-Benzimidazol-2-ylmethyl)amino]-2-oxo-1(2H)-pyrazinyl]-N-cyclopropyl-4-methyl-benzamide]: the pIC50 is on record as 6.4.
Regarding `Cc1ccc(C(=O)NC2CC2)cc1-n1ccnc(NCC2CNc3ccccc3C2)c1=O` (stereo not drawn) [Example 29, N-Cyclopropyl-4-methyl-3-[2-oxo-3-[[(1,2,3,4-tetrahydro-3-quinolinyl)methyl]amino]-1(2H)-pyrazinyl]-benzamide], the pIC50 is recorded as 7.
`Cc1ccccc1[C@H](Nc1nccn(-c2cc(C(=O)NC3CC3)ccc2C)c1=O)[C@@H](C)CN1CCCC1` [Example 275, N-Cyclopropyl-3-[3-[[(1R,2S)-1-(2-methylphenyl)-2-methyl-3-(1-pyrrolidinyl)propyl]amino]-2-oxo-1(2H)-pyrazinyl]-4-methyl-benzamide]: the pIC50 was found to be 8.6.
For the compound `CONC(=O)c1ccc(C)c(-n2ccnc(C3CCCC3)c2=O)c1` [Example 127, 3-(3-cyclopentyl-2-oxo-1(2H)-pyrazinyl)-N-methoxy-4-methyl-benzamide], the pIC50 is given as 7.3.
On to `Cc1ccc(C(=O)NC2CC2)cc1-n1ccnc(N[C@@H](c2ccccc2)[C@@H](C)CN2CCC[C@@H](O)C2)c1=O` [Example 186, N-Cyclopropyl-3-[3-[[(1R,2S)-3-[(3R)-3-hydroxy-1-piperidinyl]-2-methyl-1-phenylpropyl]amino]-2-oxo-1(2H)-pyrazinyl]-4-methyl-benzamide], for which the pIC50 is on record as 9.
As to `Cc1ccc(C(=O)NC2CC2)cc1-n1ccnc(NC(CCO)c2ccccc2)c1=O` (stereo not drawn) [Example 83, N-Cyclopropyl-3-[3-[(3-hydroxy-1-phenylpropyl)amino]-2-oxo-1(2H)-pyrazinyl]-4-methyl-benzamide], the pIC50 was found to be 7.7.
Regarding `CNCCCc1ccccc1C(C)(C)Nc1nccn(-c2cc(C(=O)NC3CC3)cc(F)c2C)c1=O` [Example 323, N-Cyclopropyl-3-fluoro-4-methyl-5-{3-[(1-methyl-1-{2-[3-(methylamino)propyl]phenyl}ethyl)amino]-2-oxopyrazin-1(2H)-yl}benzamide], the pIC50 turned out to be 9.5.
To `CONC(=O)c1ccc(C)c(-n2ccnc(N[C@@H](c3ccccc3)[C@@H](C)CN3CCOCC3)c2=O)c1` [Example 160, N-Methoxy-4-methyl-3-[3-[[(1R,2S)-2-methyl-3-(4-morpholinyl)-1-phenylpropyl]amino]-2-oxo-1(2H)-pyrazinyl]-benzamide] belongs 9.8.
For `CNCCOc1ccccc1C1CCCN1c1nccn(-c2cc(C(=O)NC3CC3)ccc2C)c1=O` (stereo not drawn) [Example 327, N-Cyclopropyl-4-methyl-3-[3-(2-{2-[2-(methylamino)ethoxy]phenyl}pyrrolidin-1-yl)-2-oxopyrazin-1(2H)-yl]benzamide Trifluoroacetate salt], the pIC50 is 8.
Consider `Cc1ccccc1CNc1nccn(-c2cc(C(=O)NC3CC3)ccc2C)c1=O` [Example 39, N-Cyclopropyl-4-methyl-3-[3-[[(2-methylphenyl)methyl]amino]-2-oxo-1(2H)-pyrazinyl]-benzamide], for which the pIC50 came to 7.5.
`Cc1ccc(C(=O)NC2CC2)cc1-n1ccnc(NC2(c3ccccc3OCCN3CCCN(C)CC3)CC2)c1=O` [Example 235, N-Cyclopropyl-3-[3-[[1-[2-[2-(hexahydro-4-methyl-1H-1,4-diazepin-1-yl)ethoxy]phenyl]cyclopropyl]amino]-2-oxo-1(2H)-pyrazinyl]-4-methyl-benzamide]: the pIC50 turned out to be 9.7.
In the case of `Cc1ccc(C(=O)NC2CC2)cc1-n1cc(Br)nc(N2CCN(C)CC2c2ccccc2)c1=O` (stereo not drawn) [Example 120, 3-[5-bromo-3-(4-methyl-2-phenyl-1-piperazinyl)-2-oxo-1(2H)-pyrazinyl]-N-cyclopropyl-4-methyl-benzamide], the pIC50 stood at 6.4.
For `Cc1ccc(C(=O)NC2CC2)cc1-n1ccnc(N[C@@H](c2ccccc2)[C@@H](C)CN2CCC[C@H]2C)c1=O` [Example 184, N-Cyclopropyl-4-methyl-3-[3-[[(1R,2S)-2-methyl-3-[(2R)-2-methyl-1-pyrrolidinyl]-1-phenylpropyl]amino]-2-oxo-1(2H)-pyrazinyl]-benzamide], the pIC50 stood at 8.7.
`Cc1ccc(C(=O)NC2CC2)cc1-n1ccnc(NCc2cccc(CN)c2)c1=O` [Example 124, 3-[3-[[[3-(Aminomethyl)phenyl]methyl]amino]-2-oxo-1(2H)-pyrazinyl]-N-cyclopropyl-4-methyl-benzamide]: the pIC50 was 6.9.

The values are drawn from patent US20120214822A1 (ASTRAZENECA AB, priority 2007, published 2012).
